Results from the supplement of paper PMC10331698.
± gives the standard deviation of the averaged measurements.

Tests used:
Test in all cases: level (log10 ratio to DMSO vehicle control); higher = higher biomarker level / cell amount than vehicle control
[1] = compound: C=C(C)C(=O)OCC(F)(F)C(F)(F)C(F)(F)F [2,2,3,3,4,4,4-Heptafluorobutyl methacrylate]; settings: in DMSO
Experimental: (§1)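 BioMAP Diversity Plus panel of 12 human primary cell co-culture systems (3C, 4H, LPS, SAg, BT, BF4T, BE3C, CASM3C, HDF3CGF, KF3CT, MyoF, Mphg). Compounds were added 1 h before stimulation and left for 24 h (MyoF 48 h; BT 72 h for soluble read-outs or 6 d for IgG). Biomarkers were read by ELISA, cytotoxicity by SRB, PBMC viability and proliferation by Alamar Blue. Each well value was divided by the mean of 8 DMSO control wells on the same plate and log10 transformed; duplicate blinded samples were tested at 4 concentrations.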

[2] = compound: C=CC(=O)OCC(F)(F)C(F)(F)C(F)(F)C(F)(F)C(F)(F)C(F)(F)C(F)(F)C(F)F [1H,1H,9H-Perfluorononyl acrylate]; settings: in DMSO
Experimental: as §1

[3] = compound: FC(F)(F)C(F)(F)C(F)(F)C(F)(F)CCI [1H,1H,2H,2H-Perfluorohexyl iodide]; settings: in DMSO
Experimental: as §1

[4] = compound: O=C(Cl)C(F)(F)C(F)(F)C(F)(F)C(=O)Cl [Hexafluoroglutaryl chloride]; settings: in DMSO
Experimental: as §1

[5] = compound: O=C(O)C(F)(F)C(F)(F)C(F)(F)C(F)(F)C(F)(F)C(F)(F)C(F)(F)F [Ammonium perfluorooctanoate]; settings: in DMSO
Experimental: as §1

[6] = compound: OCC(F)(F)C(F)(F)C(F)(F)C(F)(F)C(F)(F)C(F)(F)C(F)(F)C(F)(F)CO [1H,1H,10H,10H-Perfluorodecane-1,10-diol]; settings: in DMSO
Experimental: as §1

[7] = compound: OCCCC(F)(F)C(F)(F)C(F)(F)C(F)(F)C(F)(F)C(F)(F)C(F)(F)C(F)(F)F [3-(Perfluorooctyl)propanol]; settings: 6700 nM; in DMSO
Experimental: as §1

Test System	level (log10) ([1]; 6700 nM)	level (log10) ([1]; 20000 nM)	level (log10) ([1]; 60000 nM)	level (log10) ([2]; 6700 nM)	level (log10) ([2]; 20000 nM)	level (log10) ([2]; 60000 nM)	level (log10) ([3]; 6700 nM)	level (log10) ([3]; 20000 nM)	level (log10) ([3]; 60000 nM)	level (log10) ([4]; 6700 nM)	level (log10) ([4]; 20000 nM)	level (log10) ([4]; 60000 nM)	level (log10) ([5]; 6700 nM)	level (log10) ([5]; 20000 nM)	level (log10) ([5]; 60000 nM)	level (log10) ([6]; 6700 nM)	level (log10) ([6]; 20000 nM)	level (log10) ([6]; 60000 nM)	level (log10) [7]
BT:sIL-17A	-0.0665 ± 0.11	0.042 ± 0.065	0.0245 ± 0.086	-0.174 ± 0.019	-0.509 ± 0.17	-1.28 ± 0.4	0.0075 ± 0.12	0.028 ± 0.011	-0.249 ± 0.1	0.005 ± 0.098	-0.049 ± 0.18	0.0285 ± 0.13	-0.168 ± 0.2	-0.0675 ± 0.037	-0.282 ± 0.23	-0.0865 ± 0.012	-0.208 ± 0.24	-0.729	0.023 ± 0.028
BT:sIL-17F	-0.0825 ± 0.14	0.0525 ± 0.083	0.0455 ± 0.033	-0.175 ± 0.05	-0.483 ± 0.2	-0.84 ± 0.25	-0.0555 ± 0.04	-0.03 ± 0.021	-0.0755 ± 0.1	0.0195 ± 0.09	-0.095 ± 0.0071	-0.0065 ± 0.005	-0.0405 ± 0.13	-0.0495 ± 0.094	-0.0615 ± 0.14	-0.123 ± 0.064	-0.054 ± 0.1	-0.619	-0.101 ± 0.015
BT:sTNF-alpha	0.0155 ± 0.043	0.023 ± 0.058	0.0675 ± 0.0092	-0.111 ± 0.039	-0.281 ± 0.065	-0.827 ± 0.71	-0.016 ± 0.085	-0.003 ± 0.0028	-0.036 ± 0.095	0.0505 ± 0.025	-0.0155 ± 0.037	0.104 ± 0.07	-0.033 ± 0.038	-0.0095 ± 0.12	0.001 ± 0.13	-0.017 ± 0.085	-0.007 ± 0.031	-0.762	-0.0805 ± 0.029
LPS:CCL2/MCP-1	0.0125 ± 0.015	-0.002 ± 0.0028	0.018 ± 0.02	-0.023 ± 0.021	-0.007 ± 0.045	-0.055 ± 0.0085	-0.016 ± 0.0014	0.0055 ± 0.0078	-0.013 ± 0.024	0.0165 ± 0.005	0.008 ± 0.041	0.0265 ± 0.033	-0.0095 ± 0.0035	-0.001 ± 0.031	0.0105 ± 0.0092	-0.0035 ± 0.00071	-0.0135 ± 0.015	0.01	-0.0925 ± 0.13
LPS:CD40	0.0015 ± 0.037	0.024 ± 0.034	0.0525 ± 0.012	-0.001 ± 0.05	-0.0785 ± 0.029	-0.181 ± 0.064	0.0065 ± 0.0021	-0.019 ± 0.02	-0.0095 ± 0.025	-0.011 ± 0.057	0.0315 ± 0.032	-0.0375 ± 0.063	0.024 ± 0.025	0.0265 ± 0.088	-0.117 ± 0.093	-0.0225 ± 0.015	-0.0585 ± 0.037	-0.095	-0.039 ± 0.018
LPS:CD62E/E-Selectin	0.001 ± 0.0071	0.0075 ± 0.026	-0.0015 ± 0.0035	-0.002 ± 0.027	0.0165 ± 0.026	-0.008	0.0035 ± 0.022	-0.0105 ± 0.018	-0.0095 ± 0.012	0.0025 ± 0.0035	0.003 ± 0.02	0.038 ± 0.031	-0.0015 ± 0.0092	-0.012 ± 0.0028	0.0025 ± 0.013	-0.064 ± 0.04	-0.0475 ± 0.0021	-0.038	-0.148 ± 0.079
LPS:CD69	-0.019 ± 0.013	-0.024 ± 0.028	-0.024 ± 0.011	-0.0345 ± 0.011	-0.062 ± 0.011	-0.102 ± 0.023	0 ± 0.013	-0.008 ± 0.0071	0.0085 ± 0.011	0.0045 ± 0.021	-0.0195 ± 0.07	-0.005 ± 0.051	-0.0165 ± 0.012	-0.045 ± 0.0085	-0.142 ± 0.031	-0.0215 ± 0.073	-0.039 ± 0.045	-0.111	-0.011 ± 0.016
LPS:CD106/VCAM-1	-0.0175 ± 0.013	-0.018 ± 0.0085	-0.02 ± 0.0085	-0.002 ± 0.011	-0.0365 ± 0.019	-0.0565 ± 0.0021	0.01	-0.0195 ± 0.005	-0.026 ± 0.016	-0.0235 ± 0.011	-0.0135 ± 0.012	-0.011 ± 0.013	0.001 ± 0.0042	0.0035 ± 0.015	-0.013 ± 0.0028	-0.034 ± 0.028	-0.0485 ± 0.012	-0.052	-0.158 ± 0.17
LPS:CD141/Thrombomodulin	0.001 ± 0.05	-0.0015 ± 0.005	-0.0185 ± 0.019	-0.028 ± 0.0042	-0.0695 ± 0.035	-0.108 ± 0.021	0.0185 ± 0.023	0.011 ± 0.038	-0.005 ± 0.027	-0.0035 ± 0.066	-0.017 ± 0.028	-0.017 ± 0.021	0.0135 ± 0.025	0.0105 ± 0.013	-0.004 ± 0.016	-0.02 ± 0.03	0.007 ± 0.044	-0.047	0.092 ± 0.031
LPS:CD142/Tissue Factor	-0.0225 ± 0.026	-0.013 ± 0.025	0.02 ± 0.0057	0.019 ± 0.025	0.0415 ± 0.026	-0.015 ± 0.013	0.0165 ± 0.0035	0.0275 ± 0.018	0.055 ± 0.051	0.0275 ± 0.018	-0.0025 ± 0.044	-0.0185 ± 0.0035	0.016 ± 0.03	0.0045 ± 0.016	0.0105 ± 0.015	0 ± 0.038	0.0125 ± 0.069	-0.035	-0.126 ± 0.066
LPS:CXCL8/IL-8	-0.001 ± 0.016	0.0055 ± 0.012	0.0145 ± 0.0092	-0.001 ± 0.047	0.0095 ± 0.023	-0.023 ± 0.028	0.008 ± 0.034	0.021 ± 0.033	0.0375 ± 0.057	-0.0295 ± 0.00071	0 ± 0.037	-0.0035 ± 0.043	0.017 ± 0.0042	0.038 ± 0.013	0.047 ± 0.027	-0.0065 ± 0.023	0.006 ± 0.0042	0.051	-0.132 ± 0.014
LPS:IL-1alpha	-0.04 ± 0.0057	-0.0105 ± 0.011	0.042 ± 0.0014	0.04 ± 0.028	0.0435 ± 0.03	0.0325 ± 0.053	-0.0045 ± 0.032	-0.034 ± 0.047	0.051 ± 0.044	-0.0955 ± 0.022	-0.115 ± 0.015	-0.057 ± 0.027	0.019 ± 0.0042	0.0045 ± 0.00071	-0.034 ± 0.024	0.0225 ± 0.033	0.027 ± 0.016	0.066	-0.267 ± 0.065
LPS:M-CSF	0.0125 ± 0.042	0.007 ± 0.035	0.0165 ± 0.023	0.0015 ± 0.032	-0.0025 ± 0.0092	-0.0265 ± 0.057	0.002 ± 0.0042	0 ± 0.0099	-0.0055 ± 0.028	-0.014 ± 0.05	0.001 ± 0.0085	-0.0105 ± 0.005	0.0145 ± 0.023	0.005 ± 0.031	0.007 ± 0.018	-0.018 ± 0.024	-0.013	0.011	-0.073 ± 0.03
LPS:SRB	-0.012 ± 0.0014	-0.0075 ± 0.0021	0.002 ± 0.0042	-0.006 ± 0.0028	0.003 ± 0.0042	-0.0055 ± 0.011	0.019 ± 0.023	0.0125 ± 0.035	0.007 ± 0.024	-0.0075 ± 0.0064	0.0015 ± 0.012	0.003 ± 0.0014	-0.006 ± 0.0071	-0.0065 ± 0.00071	-0.0245 ± 0.005	0.0005 ± 0.016	-0.012 ± 0.017	-0.042	-0.033 ± 0.018
LPS:sPGE2	0.05 ± 0.042	-0.009 ± 0.024	0.076 ± 0.014	-0.046 ± 0.0071	-0.123 ± 0.053	-0.15 ± 0.11	-0.004 ± 0.014	-0.002 ± 0.017	0.0245 ± 0.03	-0.011 ± 0.018	-0.0375 ± 0.026	-0.056 ± 0.03	-0.0185 ± 0.022	-0.067 ± 0.018	-0.172 ± 0.044	-0.0125 ± 0.03	0.0375 ± 0.0078	0.025	-0.061 ± 0.061
